# Reference: patent publication US12043613B2, “Inhibitors of SARM1” (Disarm Therapeutics, Inc., priority 2020, dated 2024)
# Target: T1, SARM1 (ARM-SAM-TIR, full length SARM1) (Homo sapiens, UniProt Q6SZW1)
# T1 sequence (Q6SZW1 with tags, fused parts or gaps): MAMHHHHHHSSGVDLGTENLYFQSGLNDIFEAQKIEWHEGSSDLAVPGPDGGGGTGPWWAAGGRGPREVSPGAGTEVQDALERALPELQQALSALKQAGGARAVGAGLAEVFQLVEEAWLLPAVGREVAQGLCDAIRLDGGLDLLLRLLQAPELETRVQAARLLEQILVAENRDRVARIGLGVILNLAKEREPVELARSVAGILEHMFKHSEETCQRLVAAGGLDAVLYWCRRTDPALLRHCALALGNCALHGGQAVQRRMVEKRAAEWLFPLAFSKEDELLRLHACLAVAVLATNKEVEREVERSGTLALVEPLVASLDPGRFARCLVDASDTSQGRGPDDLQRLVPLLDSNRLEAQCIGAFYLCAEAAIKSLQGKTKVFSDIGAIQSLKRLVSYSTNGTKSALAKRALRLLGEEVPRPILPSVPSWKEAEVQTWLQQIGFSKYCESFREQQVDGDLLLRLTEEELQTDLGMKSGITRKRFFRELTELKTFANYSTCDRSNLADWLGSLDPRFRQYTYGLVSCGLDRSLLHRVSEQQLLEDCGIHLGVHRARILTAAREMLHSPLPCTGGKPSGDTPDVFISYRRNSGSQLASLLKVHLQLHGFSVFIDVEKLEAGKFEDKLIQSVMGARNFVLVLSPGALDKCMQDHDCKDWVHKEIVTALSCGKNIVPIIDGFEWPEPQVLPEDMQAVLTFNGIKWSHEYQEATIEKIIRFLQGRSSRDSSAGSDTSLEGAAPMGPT
# Assay: biochemical
# Conditions: SARM1 IC50 (nM), ARM-SAM-TIR lysate 5 μg/mL from NRK1-HEK293T cells, 2 h pre-incubation, 5 uM NAD+, 2 hr room temperature
# Protocol: This assay makes use of full length SARM1, which encompasses the ARM, SAM and TIR domains.
# Preparation of ARM-SAM-TIR lysate (STL)
# NRK1-HEK293T cells were seeded onto 150 cm^2 plates at 20×10^6 cells per plate. The next day, the cells were transfected with 15 g ARM-SAM-TIR expression plasmid, SEQ ID NO: 1.
# The cultures were supplemented with 1 mM NR at time of transfection to minimize toxicity from ARM-SAM-TIR overexpression. Forty-eight hours after transfection, cells were harvested, pelleted by centrifugation at 1,000 rpm (Sorvall ST 16R centrifuge, Thermo Fisher), and washed once with cold PBS (0.01 M phosphate buffered saline NaCl 0.138 M; KCl 0.0027 M; pH 7.4). The cells were resuspended in PBS with protease inhibitors (cOmplete™ protease inhibitor cocktail, Roche product #11873580001) and cell lysates were prepared by sonication (Branson Sonifer 450, output=3, 20 episodes of stroke). The lysates were centrifuged (12,000×g for 10 min at 4° C.) to remove cell debris and the supernatants (containing ARM-SAM-TIR protein) were stored at −80° C. for later use in the in vitro ARM-SAM-TIR NADase assay (see below). Protein concentration was determined by the Bicinchoninic (BCA) method and used to normalize lysate concentrations.
# ARM-SAM-TIR IC50 assay of Formula I compounds.
# The enzymatic assay was performed in a 384-well polypropylene plate in Dulbecco's PBS buffer in a final assay volume of 20 μL. ARM-SAM-TIR lysate with a final concentration of 5 μg/mL was pre-incubated with the respective compound at 1% DMSO final assay concentration over 2h at room temperature. The reaction was initiated by addition of 5 uM final assay concentration of NAD+ as substrate. After a 2 hr room temperature incubation, the reaction was terminated with 40 μL of stop solution of 7.5% trichloroactetic acid in acetonitrile. The NAD+ and ADPR concentrations were analyzed by a RapidFire High Throughput Mass Spectrometry System (Agilent Technologies, Santa Clara, Calif.) using an API4000 triple quadrupole mass spectrometer (AB Sciex Framingham, Mass.).
row,IC50 [nM],Compound
1,101 to 500,N#Cc1c(-c2ccncc2)n[nH]c1N1CCCC(Cc2ccc(Cl)cc2)C1=O (stereo not shown) [Compound I-56]
2,101 to 500,"Cc1c(-c2ccncc2)n[nH]c1N1CCC(Cc2cnc(Cl)c(F)c2)C1=O (single isomer, unassigned) [I-41* (peak 1)]"
3,101 to 500,O=C1C(Cc2ccc(Cl)nc2)CCCCN1c1cc(-c2ccncc2)n[nH]1 (stereo not shown) [Compound I-40]
4,501 to 1000,O=C1C(Cc2ccc(Cl)nc2)NCN1c1cc(-c2ccncc2)n[nH]1 (stereo not shown) [Compound I-35]
5,101 to 500,O=C1C(Cc2ccc(C(F)(F)F)nc2)CCCN1c1cc(-c2ccncc2)n[nH]1 (stereo not shown) [Compound I-96]
6,< 50,O=C1C(Cc2ccc(Cl)nc2)CCN1c1[nH]nc(-c2ccncc2)c1F (stereo not shown) [Compound I-36]
7,< 50,"O=C1C(Cc2ccc(F)nc2)CCN1c1cc(-c2ccncc2)n[nH]1 (single isomer, unassigned) [I-67* (peak 2)]"
8,101 to 500,O=C1[C@H](Cc2ccc(Cl)cc2)NCCN1c1cc(-c2ccncc2)n[nH]1 [Compound I-1-a]
9,51 to 100,"O=C1C(Cc2ccc(F)c(F)c2)CCN1c1nnc(-c2ccncc2)[nH]1 (single isomer, unassigned) [I-11* (peak 2)]"
10,101 to 500,Cc1c(-c2ccncc2)n[nH]c1N1CCC(Cc2cnc(Cl)c(F)c2)C1=O (stereo not shown) [Compound I-41]
11,51 to 100,N#Cc1c(-c2ccncc2)n[nH]c1N1CCC(Cc2ccc(Cl)nc2)C1=O (stereo not shown) [Compound I-51]
12,101 to 500,O=C1C(Cc2ccc(F)nc2)CCCN1c1[nH]nc(-c2ccncc2)c1F (stereo not shown) [Compound I-27]
13,> 1000,N#Cc1ccc(CC2CCN(c3nc(-c4ccncc4)n[nH]3)C2=O)cn1 (stereo not shown) [Compound I-111]
14,101 to 500,Cc1c(-c2ccncc2)n[nH]c1N1CCC(Cc2ccc(Cl)nc2)C1=O (stereo not shown) [Compound I-48]
15,101 to 500,CC1(Cc2ccc(Cl)cc2)CCCN(c2nc(-c3ccncc3)n[nH]2)C1=O (stereo not shown) [Compound I-54]
16,101 to 500,N#Cc1cc(CC2CCCN(c3nc(-c4ccncc4)n[nH]3)C2=O)ccc1Cl (stereo not shown) [Compound I-103]
17,< 50,"N#Cc1ccc(CC2CCN(c3[nH]nc(-c4ccncc4)c3F)C2=O)cc1F (single isomer, unassigned) [I-25* (peak 2)]"
18,< 50,O=C1C(Cc2ccc(Cl)cc2)CCN1c1nnc(-c2ccncc2)[nH]1 (stereo not shown) [Compound I-4]
19,> 1000,O=C1C(Cc2ccc(Cl)nc2)CNN1c1cc(-c2ccncc2)n[nH]1 (stereo not shown) [Compound I-30]
20,51 to 100,"O=C1C(Cc2ccc(F)nc2)CCN1c1[nH]nc(-c2ccncc2)c1F (single isomer, unassigned) [I-33* (peak 1)]"
21,> 1000,Cc1c(-c2ccncc2)n[nH]c1N1CCN[C@@H](Cc2ccc(Cl)cc2)C1=O [Compound I-3-a]
22,< 50,O=C1C(Cc2cnc(Cl)c(F)c2)CCN1c1cc(-c2ccncc2)n[nH]1 (stereo not shown) [Compound I-65]
23,< 50,O=C1C(Cc2cnc(Cl)c(F)c2)CCCN1c1cc(-c2ccncc2)n[nH]1 (stereo not shown) [Compound I-66]
24,51 to 100,"O=C1C(Cc2ccc(Cl)nc2)CCN1c1nnc(-c2ccncc2)[nH]1 (single isomer, unassigned) [I-9* (peak 2)]"
25,501 to 1000,N#Cc1ccc(CC2CCN(c3nc(-c4ccncc4)n[nH]3)C2=O)cc1 (stereo not shown) [Compound I-115]
26,< 50,N#Cc1cc(CC2CCCN(c3cc(-c4ccncc4)n[nH]3)C2=O)ccc1F (stereo not shown) [Compound I-100]
27,> 1000,O=C1N(c2nnc(-c3ccncc3)[nH]2)CCC1(Cc1ccc(F)c(F)c1)Cc1ccc(F)c(F)c1 [Compound I-12]
28,> 1000,O=C1N(c2nc(-c3ccncc3)n[nH]2)CCC1(F)Cc1ccc(Cl)nc1 (stereo not shown) [Compound I-42]

row,IC50 [nM],Compound
1,< 50,O=C1C(Cc2cnc(Cl)c(F)c2)CCCN1c1nnc(-c2ccncc2)[nH]1 (stereo not shown) [Compound I-24]
2,< 50,"O=C1C(Cc2ccc(F)c(F)c2)CCN1c1cc(-c2ccncc2)n[nH]1 (single isomer, unassigned) [I-16* (peak 1)]"
3,51 to 100,"Cc1c(N2CCC(Cc3ccc(Cl)cc3)C2=O)n[nH]c1-c1ccncc1 (single isomer, unassigned) [I-6* (peak 1)]"
4,501 to 1000,O=C1C(Cc2ccc(Cl)cc2)CNCCN1c1nc(-c2ccncc2)n[nH]1 (stereo not shown) [Compound I-38]
5,101 to 500,"O=C1C(Cc2ccc(F)nc2)CCN1c1nnc(-c2ccncc2)[nH]1 (single isomer, unassigned) [I-39* (peak 1)]"
6,101 to 500,N#Cc1ccc(CC2CCN(c3nnc(-c4ccncc4)[nH]3)C2=O)cc1F (stereo not shown) [Compound I-26]
7,< 50,O=C1C(Cc2ccc(F)c(F)c2)CCCN1c1nnc(-c2ccncc2)[nH]1 (stereo not shown) [Compound I-13]
8,< 50,O=C1C(Cc2ccc(Cl)c(F)c2)CCN1c1nnc(-c2ccncc2)[nH]1 (stereo not shown) [Compound I-8]
9,51 to 100,"O=C1C(Cc2ccc(F)nc2)CCN1c1[nH]nc(-c2ccncc2)c1Cl (single isomer, unassigned) [I-32* (peak 1)]"
10,101 to 500,O=C1C(Cc2ccc(Cl)nc2)OCCN1c1nnc(-c2ccncc2)[nH]1 (stereo not shown) [Compound I-58]
11,51 to 100,Cc1c(N2CCC(Cc3ccc(Cl)cc3)C2=O)n[nH]c1-c1ccncc1 (stereo not shown) [Compound I-6]
12,101 to 500,"CC1(Cc2ccc(Cl)cc2)CCCN(c2nc(-c3ccncc3)n[nH]2)C1=O (single isomer, unassigned) [I-54* (peak 2)]"
13,101 to 500,N#Cc1cc(CC2CCCN(c3nc(-c4ccncc4)n[nH]3)C2=O)ccc1F (stereo not shown) [Compound I-101]
14,< 50,N#Cc1c(-c2ccncc2)n[nH]c1N1CCC(Cc2ccc(Cl)cc2)C1=O (stereo not shown) [Compound I-52]
15,< 50,"O=C1C(Cc2ccc(F)c(F)c2)CCN1c1nnc(-c2ccncc2)[nH]1 (single isomer, unassigned) [I-11* (peak 1)]"
16,< 50,N#Cc1ccc(CC2CCCN(c3cc(-c4ccncc4)n[nH]3)C2=O)cc1 (stereo not shown) [Compound I-98]
17,< 50,"O=C1C(Cc2ccc(Cl)c(F)c2)CCN1c1nnc(-c2ccncc2)[nH]1 (single isomer, unassigned) [I-8* (peak 1)]"
18,101 to 500,"O=C1C(Cc2ccc(Cl)nc2)CCCCN1c1cc(-c2ccncc2)n[nH]1 (single isomer, unassigned) [I-40* (peak 2)]"
19,51 to 100,O=C1C(Cc2cnc(Cl)c(F)c2)CCN1c1nnc(-c2ccncc2)[nH]1 (stereo not shown) [Compound I-18]
20,> 1000,"N[C@H]1CC(Cc2ccc(Cl)nc2)C(=O)N(c2cc(-c3ccncc3)n[nH]2)C1 (single isomer, unassigned) [I-60* (peak 1)]"
21,< 50,"O=C1C(Cc2ccc(Cl)nc2)CCCN1c1cc(-c2ccncc2)n[nH]1 (single isomer, unassigned) [I-21* (peak 2)]"
22,< 50,O=C1C(Cc2ccc(Cl)cc2)OCCN1c1nnc(-c2ccncc2)[nH]1 (stereo not shown) [Compound I-44]
23,< 50,"O=C1C(Cc2ccc(Cl)c(F)c2)CCCN1c1cc(-c2ccncc2)n[nH]1 (single isomer, unassigned) [I-20* (peak 1)]"
24,51 to 100,N#Cc1cc(CC2CCCN(c3cc(-c4ccncc4)n[nH]3)C2=O)ccc1Cl (stereo not shown) [Compound I-102]
25,> 1000,CC1(Cc2ccc(F)c(F)c2)CCN(c2nc(-c3ccncc3)n[nH]2)C1=O (stereo not shown) [Compound I-43]
26,51 to 100,"Cc1c(-c2ccncc2)n[nH]c1N1CCC(Cc2ccc(F)c(F)c2)C1=O (single isomer, unassigned) [I-49* (peak 2)]"
27,> 1000,O=C1C(Cc2ccc(F)nc2)CCCN1c1[nH]nc(-c2ccncc2)c1Cl (stereo not shown) [Compound I-28]
